According to publication PMC9747329 (ACS chemical biology, 2022):
Non-standard residues stand in square brackets, D forms with d. Residues, ends and D or L forms follow the SMILES beside them. *: point of attachment. X1 = CN(C)c1ccc2c(-c3cc(C(=O)*)ccc3C(=O)[O-])c3ccc(=[N+](C)C)cc-3oc2c1; hArg = N=C(N)NCCCC[C@H](N)C(=O)O; Aib = CC(C)(N)C(=O)O

Tests used:
nLuc-ΔECD-PTHR1 = target: T1, nLuc-ΔECD-PTHR1 (Homo sapiens, UniProt Q03431); assay: NanoBRET direct binding on truncated receptor lacking the extracellular domain
T1 sequence (Q03431 182-593 limits assumed): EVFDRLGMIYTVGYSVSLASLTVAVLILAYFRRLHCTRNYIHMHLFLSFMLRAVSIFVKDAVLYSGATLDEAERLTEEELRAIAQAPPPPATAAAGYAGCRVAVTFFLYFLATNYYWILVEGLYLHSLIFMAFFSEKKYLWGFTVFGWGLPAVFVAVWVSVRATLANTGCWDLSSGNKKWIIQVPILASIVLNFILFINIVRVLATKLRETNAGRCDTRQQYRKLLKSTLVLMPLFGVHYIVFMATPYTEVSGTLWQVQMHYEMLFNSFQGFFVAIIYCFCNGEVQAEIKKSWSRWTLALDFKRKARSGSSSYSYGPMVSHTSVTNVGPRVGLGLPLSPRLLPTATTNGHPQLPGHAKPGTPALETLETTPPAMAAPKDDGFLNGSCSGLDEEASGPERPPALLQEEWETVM

nLuc-PTHR1 [1] = target: T2, nLuc-PTHR1 (Homo sapiens, UniProt Q03431); type: binding; conditions: HEK293
T2 sequence (Q03431 27-593): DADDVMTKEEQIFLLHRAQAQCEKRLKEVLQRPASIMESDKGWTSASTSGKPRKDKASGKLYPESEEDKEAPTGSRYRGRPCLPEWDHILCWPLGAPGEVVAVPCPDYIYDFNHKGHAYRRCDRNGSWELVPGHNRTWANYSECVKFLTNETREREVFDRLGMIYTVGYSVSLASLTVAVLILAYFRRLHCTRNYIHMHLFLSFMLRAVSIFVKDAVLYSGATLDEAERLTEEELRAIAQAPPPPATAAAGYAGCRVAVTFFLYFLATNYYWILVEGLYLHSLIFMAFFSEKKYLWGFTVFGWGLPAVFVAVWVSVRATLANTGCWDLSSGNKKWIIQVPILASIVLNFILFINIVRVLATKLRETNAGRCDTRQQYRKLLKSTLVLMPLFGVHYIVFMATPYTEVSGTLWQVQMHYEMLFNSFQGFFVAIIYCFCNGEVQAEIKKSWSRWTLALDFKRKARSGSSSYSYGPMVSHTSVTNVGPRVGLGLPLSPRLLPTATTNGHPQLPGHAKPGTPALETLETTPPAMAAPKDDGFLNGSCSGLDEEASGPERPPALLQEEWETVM

WT-PTHR1 = target: T3, WT-PTHR1 (Homo sapiens, UniProt Q03431); assay: GloSensor cAMP assay in GP2.3 cells; type: cell-based; conditions: HEK293, read-out: cAMP formation %Emax
T3 sequence (Q03431 27-593): T2 sequence (Q03431 27-593)

nLuc-PTHR1 [2] = target: T2, nLuc-PTHR1; assay: NanoBRET equilibrium competition binding with tracer PTH; conditions: ABL up to 1 μM

Row | Compound | koff (nLuc-ΔECD-PTHR1) | kon (nLuc-ΔECD-PTHR1) | koff (nLuc-PTHR1 [1]) | kon (nLuc-PTHR1 [1]) | Emax (WT-PTHR1) | displacement of PTH(1-34)K35^TMR tracer (in words) (nLuc-PTHR1 [2])
1 | CC[C@H](C)[C@H](NC(=O)[C@H](CC(C)C)NC(=O)[C@H](CCCCN)NC(=O)[C@H](Cc1c[nH]cn1)NC(=O)[C@H](CC(C)C)NC(=O)[C@H](Cc1ccccc1)NC(=O)[C@H](C)NC(=O)[C@H](CCCNC(=N)N)NC(=O)[C@H](CCCNC(=N)N)NC(=O)[C@H](CCCNC(=N)N)NC(=O)[C@H](C)NC(=O)[C@H](CC(=O)O)NC(=O)[C@H](CCC(N)=O)NC(=O)[C@@H](NC(=O)[C@H](Cc1c[nH]c2ccccc12)NC(=O)[C@H](CCCCN)NC(=O)[C@H](C)NC(=O)[C@H](CCCNC(=N)N)NC(=O)[C@H](CCC(N)=O)NC(=O)[C@H](Cc1c[nH]cn1)NC(=O)[C@H](CCSC)NC(=O)[C@H](CC(C)C)NC(=O)[C@H](CCC(N)=O)NC(=O)[C@@H](NC(=O)[C@H](CCC(=O)O)NC(=O)[C@H](C)NC(=O)[C@@H](NC(=O)[C@H](C)N)C(C)C)[C@@H](C)CC)[C@@H](C)CC)C(=O)N[C@@H](C)C(=O)N[C@@H](CCC(=O)O)C(=O)N[C@H](C(=O)N[C@@H](Cc1c[nH]cn1)C(=O)N[C@H](C(=O)N[C@@H](C)C(=O)N[C@@H](CCCCNC(=O)c1ccc(C(=O)[O-])c(-c2c3ccc(=[N+](C)C)cc-3oc3cc(N(C)C)ccc23)c1)C(N)=O)[C@@H](C)O)[C@@H](C)CC [LA-PTH(1-34)-35K^TMR] (H-AVAEIQLMHQRAKWIQDARRRAFLHKLIAEIHTAK(X1)-NH2; N-terminus assumed) | 0.0097 ± 0.003 s⁻¹ | 130000 ± 10000 M⁻¹ s⁻¹ | 0.00056 ± 0.0002 s⁻¹ | 230000 ± 40000 M⁻¹ s⁻¹ |  | 
2 | CC[C@H](C)[C@H](NC(=O)[C@H](CCC(=O)O)NC(=O)C(C)(C)NC(=O)[C@@H](NC(=O)C(C)(C)N)C(C)C)C(=O)N[C@@H](CCC(N)=O)C(=O)N[C@@H](CC(C)C)C(=O)N[C@@H](CCSC)C(=O)N[C@@H](Cc1c[nH]cn1)C(=O)N[C@@H](CCC(N)=O)C(=O)N[C@@H](CCCCNC(=N)N)C(=O)N[C@@H](C)C(=O)N[C@@H](CCCCN)C(=O)N[C@@H](Cc1c[nH]c2ccccc12)C(=O)N[C@@H](CCCCNC(=O)c1ccc(C(=O)[O-])c(-c2c3ccc(=[N+](C)C)cc-3oc3cc(N(C)C)ccc23)c1)C(N)=O [M-PTH(1-14)-15K^TMR] (H-[Aib]V[Aib]EIQLMHQ[hArg]AKWK(X1)-NH2; N-terminus assumed) | 0.018 ± 0.003 s⁻¹ | 180000 ± 50000 M⁻¹ s⁻¹ | 0.024 ± 0.001 s⁻¹ | 77000 ± 20000 M⁻¹ s⁻¹ |  | 
3 | CC[C@H](C)[C@H](NC(=O)[C@H](CCCCNC(=O)c1ccc(C(=O)[O-])c(-c2c3ccc(=[N+](C)C)cc-3oc3cc(N(C)C)ccc23)c1)NC(=O)[C@H](C)NC(=O)[C@@H](NC(=O)[C@H](Cc1c[nH]cn1)NC(=O)[C@@H](NC(=O)[C@H](CCC(=O)O)NC(=O)[C@H](C)NC(=O)[C@@H](NC(=O)[C@H](CC(C)C)NC(=O)[C@H](Cc1c[nH]cn1)NC(=O)[C@H](Cc1c[nH]cn1)NC(=O)[C@H](CC(C)C)NC(=O)[C@H](Cc1ccccc1)NC(=O)[C@H](Cc1ccccc1)NC(=O)[C@H](CCCNC(=N)N)NC(=O)[C@H](CCCNC(=N)N)NC(=O)[C@H](CCCNC(=N)N)NC(=O)[C@H](CC(C)C)NC(=O)[C@H](CC(=O)O)NC(=O)[C@H](CCC(N)=O)NC(=O)[C@@H](NC(=O)[C@H](CO)NC(=O)[C@H](CCCCN)NC(=O)CNC(=O)[C@H](CC(C)C)NC(=O)[C@H](CC(N)=O)NC(=O)[C@H](Cc1c[nH]cn1)NC(=O)[C@H](CCSC)NC(=O)[C@H](CC(C)C)NC(=O)[C@H](CCC(N)=O)NC(=O)[C@@H](NC(=O)[C@H](CCC(=O)O)NC(=O)[C@H](CO)NC(=O)[C@@H](NC(=O)[C@@H](N)CO)C(C)C)[C@@H](C)CC)[C@@H](C)CC)[C@@H](C)CC)[C@@H](C)CC)[C@@H](C)O)C(N)=O [PTH[1-12] PTHrP[13-36]] (H-SVSEIQLMHNLGKSIQDLRRRFFLHHLIAEIHTAK(X1)I-NH2; N-terminus assumed) |  |  | 0.0035 ± 0.001 s⁻¹ | 800000 ± 50000 M⁻¹ s⁻¹ | 107 ± 5% | 
4 | CC[C@H](C)[C@H](NC(=O)[C@H](CCCCNC(=O)c1ccc(C(=O)[O-])c(-c2c3ccc(=[N+](C)C)cc-3oc3cc(N(C)C)ccc23)c1)NC(=O)[C@H](C)NC(=O)[C@@H](NC(=O)[C@H](Cc1c[nH]cn1)NC(=O)[C@@H](NC(=O)[C@H](CCC(=O)O)NC(=O)[C@H](C)NC(=O)[C@@H](NC(=O)[C@H](CC(C)C)NC(=O)[C@H](Cc1c[nH]cn1)NC(=O)[C@H](Cc1c[nH]cn1)NC(=O)[C@H](CC(C)C)NC(=O)[C@H](Cc1ccccc1)NC(=O)[C@H](Cc1ccccc1)NC(=O)[C@H](CCCNC(=N)N)NC(=O)[C@H](CCCNC(=N)N)NC(=O)[C@H](CCCNC(=N)N)NC(=O)[C@H](CC(C)C)NC(=O)[C@H](CC(=O)O)NC(=O)[C@H](CCC(N)=O)NC(=O)[C@@H](NC(=O)[C@H](Cc1c[nH]cn1)NC(=O)[C@H](CCCCN)NC(=O)CNC(=O)[C@H](CC(C)C)NC(=O)[C@H](CC(N)=O)NC(=O)[C@H](Cc1c[nH]cn1)NC(=O)[C@H](CCSC)NC(=O)[C@H](CC(C)C)NC(=O)[C@H](CCC(N)=O)NC(=O)[C@@H](NC(=O)[C@H](CCC(=O)O)NC(=O)[C@H](CO)NC(=O)[C@@H](NC(=O)[C@@H](N)CO)C(C)C)[C@@H](C)CC)[C@@H](C)CC)[C@@H](C)CC)[C@@H](C)CC)[C@@H](C)O)C(N)=O [PTH[1-14] PTHrP[15-36]] (H-SVSEIQLMHNLGKHIQDLRRRFFLHHLIAEIHTAK(X1)I-NH2; N-terminus assumed) |  |  | 0.0022 ± 0.0009 s⁻¹ | 350000 ± 40000 M⁻¹ s⁻¹ | 106 ± 1% | 
5 | CC[C@H](C)[C@H](NC(=O)[C@H](CCCCNC(=O)c1ccc(C(=O)[O-])c(-c2c3ccc(=[N+](C)C)cc-3oc3cc(N(C)C)ccc23)c1)NC(=O)[C@H](C)NC(=O)[C@@H](NC(=O)[C@H](Cc1c[nH]cn1)NC(=O)[C@@H](NC(=O)[C@H](CCC(=O)O)NC(=O)[C@H](C)NC(=O)[C@@H](NC(=O)[C@H](CC(C)C)NC(=O)[C@H](Cc1c[nH]cn1)NC(=O)[C@H](Cc1c[nH]cn1)NC(=O)[C@H](CC(C)C)NC(=O)[C@H](Cc1ccccc1)NC(=O)[C@H](Cc1ccccc1)NC(=O)[C@H](CCCNC(=N)N)NC(=O)[C@H](CCCNC(=N)N)NC(=O)[C@H](CCCNC(=N)N)NC(=O)[C@H](CC(C)C)NC(=O)[C@H](CC(=O)O)NC(=O)[C@H](CC(N)=O)NC(=O)[C@H](CC(C)C)NC(=O)[C@H](Cc1c[nH]cn1)NC(=O)[C@H](CCCCN)NC(=O)CNC(=O)[C@H](CC(C)C)NC(=O)[C@H](CC(N)=O)NC(=O)[C@H](Cc1c[nH]cn1)NC(=O)[C@H](CCSC)NC(=O)[C@H](CC(C)C)NC(=O)[C@H](CCC(N)=O)NC(=O)[C@@H](NC(=O)[C@H](CCC(=O)O)NC(=O)[C@H](CO)NC(=O)[C@@H](NC(=O)[C@@H](N)CO)C(C)C)[C@@H](C)CC)[C@@H](C)CC)[C@@H](C)CC)[C@@H](C)O)C(N)=O [PTH[1-16] PTHrP[17-36]] (H-SVSEIQLMHNLGKHLNDLRRRFFLHHLIAEIHTAK(X1)I-NH2; N-terminus assumed) |  |  | 0.0017 ± 0.001 s⁻¹ | 530000 ± 30000 M⁻¹ s⁻¹ | 103 ± 4% | 
6 | CC[C@H](C)[C@H](NC(=O)[C@H](CCCCNC(=O)c1ccc(C(=O)[O-])c(-c2c3ccc(=[N+](C)C)cc-3oc3cc(N(C)C)ccc23)c1)NC(=O)[C@H](C)NC(=O)[C@@H](NC(=O)[C@H](Cc1c[nH]cn1)NC(=O)[C@@H](NC(=O)[C@H](CCC(=O)O)NC(=O)[C@H](C)NC(=O)[C@@H](NC(=O)[C@H](CC(C)C)NC(=O)[C@H](Cc1c[nH]cn1)NC(=O)[C@H](Cc1c[nH]cn1)NC(=O)[C@H](CC(C)C)NC(=O)[C@H](Cc1ccccc1)NC(=O)[C@H](Cc1ccccc1)NC(=O)[C@H](CCCNC(=N)N)NC(=O)[C@H](CCCNC(=N)N)NC(=O)[C@H](CCCNC(=N)N)NC(=O)[C@H](CCSC)NC(=O)[C@H](CO)NC(=O)[C@H](CC(N)=O)NC(=O)[C@H](CC(C)C)NC(=O)[C@H](Cc1c[nH]cn1)NC(=O)[C@H](CCCCN)NC(=O)CNC(=O)[C@H](CC(C)C)NC(=O)[C@H](CC(N)=O)NC(=O)[C@H](Cc1c[nH]cn1)NC(=O)[C@H](CCSC)NC(=O)[C@H](CC(C)C)NC(=O)[C@H](CCC(N)=O)NC(=O)[C@@H](NC(=O)[C@H](CCC(=O)O)NC(=O)[C@H](CO)NC(=O)[C@@H](NC(=O)[C@@H](N)CO)C(C)C)[C@@H](C)CC)[C@@H](C)CC)[C@@H](C)CC)[C@@H](C)O)C(N)=O [PTH[1-18] PTHrP[19-36]] (H-SVSEIQLMHNLGKHLNSMRRRFFLHHLIAEIHTAK(X1)I-NH2; N-terminus assumed) |  |  | 0.0079 ± 0.001 s⁻¹ | 320000 ± 70000 M⁻¹ s⁻¹ | 106 ± 1% | 
7 | ABL: synthetic analogue of PTHrP(1-34) used clinically for osteoporosis |  |  |  |  |  | failed to fully inhibit
